Assay results reported in ChEMBL document CHEMBL4610122, “Synthesis and Structure-Activity Relationships of DCLK1 Kinase Inhibitors Based on a 5,11-Dihydro-6H-benzo[e]pyrimido[5,4-b][1,4]diazepin-6-one Scaffold” (J Med Chem, 2020).
The source made the active and inactive calls. The calls are words filed in the database; no cut-off is given here.

Key:
[1] = biological target: T1, Serine/threonine-protein kinase DCLK1 (Homo sapiens, UniProt O15075); experiment: Inhibition of recombinant human N-terminal His6-tagged DCLK1 (G351 to H689 residues) expressed in Escherichia coli BL21 DE3 using 5-FAM-KKLRRTLSVA-COOH as substrate measured after 2 hrs by mobility shift assay
T1 sequence (O15075 whole entry): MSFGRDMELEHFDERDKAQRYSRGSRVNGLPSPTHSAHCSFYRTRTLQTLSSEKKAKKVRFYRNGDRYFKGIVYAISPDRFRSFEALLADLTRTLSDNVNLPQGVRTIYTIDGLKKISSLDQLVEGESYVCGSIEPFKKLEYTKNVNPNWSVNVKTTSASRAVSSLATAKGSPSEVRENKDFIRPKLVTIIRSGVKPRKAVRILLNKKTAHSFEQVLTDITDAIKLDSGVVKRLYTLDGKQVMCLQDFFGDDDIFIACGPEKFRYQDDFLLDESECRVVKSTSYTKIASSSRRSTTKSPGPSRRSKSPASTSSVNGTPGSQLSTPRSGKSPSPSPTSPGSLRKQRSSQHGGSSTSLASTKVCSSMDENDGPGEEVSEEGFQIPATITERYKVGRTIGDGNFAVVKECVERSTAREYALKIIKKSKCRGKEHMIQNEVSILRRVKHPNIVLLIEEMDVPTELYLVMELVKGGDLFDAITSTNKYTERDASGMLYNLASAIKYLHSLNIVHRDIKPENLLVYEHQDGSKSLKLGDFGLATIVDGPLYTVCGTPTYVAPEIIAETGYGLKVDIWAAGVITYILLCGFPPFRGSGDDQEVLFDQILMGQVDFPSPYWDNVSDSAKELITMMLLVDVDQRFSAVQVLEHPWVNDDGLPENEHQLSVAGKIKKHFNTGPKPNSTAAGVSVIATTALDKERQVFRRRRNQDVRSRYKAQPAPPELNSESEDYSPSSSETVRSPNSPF

[2] = biological target: Mitogen-activated protein kinase 7 (Homo sapiens, UniProt Q13164); experiment: Inhibition of ERK5 in human HeLa cells assessed as reduction in EGF-induced ERK5 autophosphorylation pretreated for 1 hr followed by EGF stimulation and measured after 17 mins by […]; format: cell-based
[3] = biological target: Leucine-rich repeat serine/threonine-protein kinase 2 (Homo sapiens, UniProt Q5S007); experiment: Inhibition of recombinant human GST-tagged LRRK2 catalytic domain (970 to 2527 residues) expressed in baculovirus expression system using LRRKtide as substrate measured after 1 hr by Alexa fluor-647 ADP tracer-based ADAPTA assay
[4] = biological target: Bromodomain-containing protein 4 (Homo sapiens, UniProt O60885); experiment: Inhibition of BRD4 bromodomain 1 (unknown origin) by AlphaScreen displacement assay
[5] = Cytotoxicity against human Panc281 cell organoids assessed as reduction in cell viability at 1 uM measured after 12 days relative to control; format: functional
[6] = AUC in mouse; format: ADME, organism-based; conditions: in vivo
[7] = Cytotoxicity against human Panc286 cell organoids assessed as reduction in cell viability at 1 uM measured after 12 days relative to control; format: functional
Homo sapiens [8] = species on record: Homo sapiens; experiment: Cytotoxicity against human Panc281 cell organoids assessed as reduction in cell viability up to 1 uM measured after 4 days; format: functional
Homo sapiens [9] = species on record: Homo sapiens; experiment: Cytotoxicity against human Panc286 cell organoids assessed as reduction in cell viability up to 1 uM measured after 4 days; format: functional
[10] = Half life in mouse; format: ADME, organism-based; conditions: in vivo
[11] = Clearance in mouse; format: ADME, organism-based; conditions: in vivo

Chain of Leucine-rich repeat serine/threonine-protein kinase 2 (Q5S007 whole entry, the tested form may be a part): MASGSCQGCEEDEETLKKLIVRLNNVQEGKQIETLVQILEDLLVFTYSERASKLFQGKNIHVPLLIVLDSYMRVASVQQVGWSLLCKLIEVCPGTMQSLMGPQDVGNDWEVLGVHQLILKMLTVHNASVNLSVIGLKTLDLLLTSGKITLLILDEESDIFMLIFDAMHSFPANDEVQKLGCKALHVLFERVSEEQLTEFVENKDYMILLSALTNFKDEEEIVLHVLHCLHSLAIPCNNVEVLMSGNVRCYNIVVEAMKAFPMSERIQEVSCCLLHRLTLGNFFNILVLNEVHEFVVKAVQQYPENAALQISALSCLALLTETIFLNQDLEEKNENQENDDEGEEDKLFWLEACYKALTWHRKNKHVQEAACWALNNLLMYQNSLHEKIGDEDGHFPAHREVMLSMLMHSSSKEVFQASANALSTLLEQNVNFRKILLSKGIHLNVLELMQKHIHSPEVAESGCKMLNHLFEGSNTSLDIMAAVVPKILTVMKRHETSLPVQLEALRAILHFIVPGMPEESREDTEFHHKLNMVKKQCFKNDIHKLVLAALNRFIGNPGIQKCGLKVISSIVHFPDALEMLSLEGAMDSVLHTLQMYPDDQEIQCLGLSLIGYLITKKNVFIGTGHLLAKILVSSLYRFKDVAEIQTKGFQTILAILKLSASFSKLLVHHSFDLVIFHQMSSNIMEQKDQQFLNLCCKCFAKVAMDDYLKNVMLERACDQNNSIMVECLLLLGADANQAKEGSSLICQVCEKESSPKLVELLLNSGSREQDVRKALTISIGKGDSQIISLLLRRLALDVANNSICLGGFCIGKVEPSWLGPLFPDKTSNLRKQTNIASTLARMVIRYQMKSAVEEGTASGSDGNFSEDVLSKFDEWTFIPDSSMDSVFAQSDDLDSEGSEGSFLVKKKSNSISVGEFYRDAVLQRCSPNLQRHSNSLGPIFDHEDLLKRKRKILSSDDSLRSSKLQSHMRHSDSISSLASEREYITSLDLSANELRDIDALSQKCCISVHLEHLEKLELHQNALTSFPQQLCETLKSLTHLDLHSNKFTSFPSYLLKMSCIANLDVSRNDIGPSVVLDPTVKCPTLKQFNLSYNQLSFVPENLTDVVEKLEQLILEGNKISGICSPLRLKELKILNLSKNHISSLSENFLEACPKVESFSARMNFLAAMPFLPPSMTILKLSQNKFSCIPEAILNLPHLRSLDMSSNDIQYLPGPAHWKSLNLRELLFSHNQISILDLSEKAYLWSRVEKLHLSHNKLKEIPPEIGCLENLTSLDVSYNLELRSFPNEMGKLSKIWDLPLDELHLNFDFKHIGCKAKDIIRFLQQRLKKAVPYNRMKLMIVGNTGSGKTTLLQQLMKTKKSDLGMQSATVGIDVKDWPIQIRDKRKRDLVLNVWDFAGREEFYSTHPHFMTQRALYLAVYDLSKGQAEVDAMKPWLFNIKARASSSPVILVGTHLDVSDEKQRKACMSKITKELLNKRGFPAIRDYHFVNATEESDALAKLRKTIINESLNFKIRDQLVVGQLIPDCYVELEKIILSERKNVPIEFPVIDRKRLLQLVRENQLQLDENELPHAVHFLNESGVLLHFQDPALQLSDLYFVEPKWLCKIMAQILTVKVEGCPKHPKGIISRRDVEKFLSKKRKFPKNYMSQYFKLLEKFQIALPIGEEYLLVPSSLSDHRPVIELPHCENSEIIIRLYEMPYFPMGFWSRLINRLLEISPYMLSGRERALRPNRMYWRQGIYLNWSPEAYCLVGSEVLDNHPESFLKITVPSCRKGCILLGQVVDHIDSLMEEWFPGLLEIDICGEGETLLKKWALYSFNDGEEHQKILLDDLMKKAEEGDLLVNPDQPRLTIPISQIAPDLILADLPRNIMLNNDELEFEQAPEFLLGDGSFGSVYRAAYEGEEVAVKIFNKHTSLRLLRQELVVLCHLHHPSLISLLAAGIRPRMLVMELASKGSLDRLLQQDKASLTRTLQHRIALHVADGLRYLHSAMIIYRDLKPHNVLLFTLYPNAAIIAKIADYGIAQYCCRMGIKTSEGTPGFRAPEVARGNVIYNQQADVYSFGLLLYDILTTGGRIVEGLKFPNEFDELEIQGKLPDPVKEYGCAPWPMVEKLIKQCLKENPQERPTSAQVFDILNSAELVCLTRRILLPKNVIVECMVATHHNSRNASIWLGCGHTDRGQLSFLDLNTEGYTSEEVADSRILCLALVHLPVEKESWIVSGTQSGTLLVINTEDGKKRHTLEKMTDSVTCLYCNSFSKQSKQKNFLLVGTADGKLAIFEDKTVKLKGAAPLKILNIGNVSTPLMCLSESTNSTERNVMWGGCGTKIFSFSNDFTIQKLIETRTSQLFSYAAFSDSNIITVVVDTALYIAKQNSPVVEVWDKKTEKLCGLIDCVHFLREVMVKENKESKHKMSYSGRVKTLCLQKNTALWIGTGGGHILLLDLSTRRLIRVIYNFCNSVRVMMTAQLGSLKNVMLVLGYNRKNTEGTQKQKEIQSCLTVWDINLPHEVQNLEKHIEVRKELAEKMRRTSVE
Chain of Mitogen-activated protein kinase 7 (Q13164 whole entry, the tested form may be a part): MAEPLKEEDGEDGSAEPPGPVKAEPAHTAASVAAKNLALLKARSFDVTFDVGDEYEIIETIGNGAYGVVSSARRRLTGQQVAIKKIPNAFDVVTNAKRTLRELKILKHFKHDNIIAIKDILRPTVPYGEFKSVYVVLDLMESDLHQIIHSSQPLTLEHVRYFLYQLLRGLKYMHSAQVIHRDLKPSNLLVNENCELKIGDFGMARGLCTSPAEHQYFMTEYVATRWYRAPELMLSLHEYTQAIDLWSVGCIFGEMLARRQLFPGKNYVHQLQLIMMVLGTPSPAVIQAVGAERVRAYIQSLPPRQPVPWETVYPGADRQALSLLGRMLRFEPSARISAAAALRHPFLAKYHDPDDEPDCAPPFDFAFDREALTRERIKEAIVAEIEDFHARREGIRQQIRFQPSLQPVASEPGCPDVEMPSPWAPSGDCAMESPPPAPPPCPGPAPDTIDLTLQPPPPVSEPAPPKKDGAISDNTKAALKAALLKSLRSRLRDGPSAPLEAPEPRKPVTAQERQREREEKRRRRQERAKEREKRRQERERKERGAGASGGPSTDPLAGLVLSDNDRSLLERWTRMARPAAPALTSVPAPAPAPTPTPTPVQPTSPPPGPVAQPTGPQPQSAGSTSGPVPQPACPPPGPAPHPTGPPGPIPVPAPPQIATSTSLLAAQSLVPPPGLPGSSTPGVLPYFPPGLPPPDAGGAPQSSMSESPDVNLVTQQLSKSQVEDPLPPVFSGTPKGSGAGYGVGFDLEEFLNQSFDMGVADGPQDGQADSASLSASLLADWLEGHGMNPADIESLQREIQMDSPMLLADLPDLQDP

SMILES | IC50 [1] [nM] | IC50 [3] [nM] | IC50 [4] [nM] | further results
COc1cc(N2CCN(C)CC2)ccc1Nc1nc(C)c2c(n1)N(C)c1ccccc1C(=O)N2C | > 2000 | 501 |  | IC50 [2]: > 10000 nM
COc1cc(NS(C)(=O)=O)ccc1Nc1ncc2c(n1)N(C)c1ccccc1C(=O)N2C | 3 to 16 | 5.9 to 6 | 125 | IC50 [2]: 276 nM
COc1cc(C(=O)NC2CCN(C)CC2)ccc1Nc1ncc2c(n1)N(C)c1ccccc1C(=O)N2C(C)C | 126 | 331 | 2380 | 
COc1cc(N2CCNCC2)ccc1Nc1ncc2c(n1)N(C)c1ccccc1C(=O)N2C | 52 | 23 |  | 
COc1cc(N2CCN(C)CC2)ccc1Nc1ncc2c(n1)N(C)c1ccc(C)cc1C(=O)N2C | > 2000 | 928 |  | 
COc1cc(N2CCN(C)CC2)ccc1Nc1ncc2c(n1)N(C1CCCC1)c1ccccc1C(=O)N2C | 26 | 421 |  | 
COc1cc(N2CCN(C)CC2)ccc1Nc1ncc2c(n1)N(C)c1ccccc1C(=O)N2 | > 1000 | 70 | > 10000 | IC50 [2]: 1200 nM
CCOc1cc(C(=O)N2CCC(N3CCN(C)CC3)CC2)ccc1Nc1ncc2c(n1)N(C1CCCC1)c1ccccc1C(=O)N2C | 22 | 171 |  | 
CCN1C(=O)c2ccccc2N(C)c2nc(Nc3ccc(C(=O)NC4CCN(C)CC4)cc3OC)ncc21 | 2 | 14 | 520 | IC50 [2]: 482 nM
COc1cc(N2CCN(C)CC2)ccc1Nc1ncc2c(n1)N(C)c1ccccc1C(=O)N2C | 11 to 16 | 29 | 888 | 
COc1cc(N2CCN(C3CCN(C)CC3)CC2)ccc1Nc1ncc2c(n1)N(C)c1ccccc1C(=O)N2C | 104 | 16 |  | 
COc1cc(N2CCN(C)CC2)ccc1Nc1ncc2c(n1)N(Cc1ccccc1)c1ccccc1C(=O)N2C | 4 | 141 |  | 
CN1C(=O)c2ccccc2N(C)c2nc(Nc3cccc(S(N)(=O)=O)c3)ncc21 | 111 | 6.1 |  | 
COc1cc(N2CCC(O)CC2)ccc1Nc1ncc2c(n1)N(C)c1ccccc1C(=O)N2C | 97 | 14.1 |  | 
COc1cc(N2CCOCC2)ccc1Nc1ncc2c(n1)N(C)c1ccccc1C(=O)N2C | 11 | 31 |  | 
COc1cc(NS(C)(=O)=O)ccc1Nc1ncc2c(n1)N(C)c1ccccc1C(=O)N2CC(F)(F)F | 80 | 8890 | > 10000 | 
CCOc1cc(N2CCC(O)CC2)ccc1Nc1ncc2c(n1)N(C)c1ccccc1C(=O)N2C | 716 | 46 |  | 
COc1cc(N2CCN(C)CC2)ccc1Nc1ncc2c(n1)N(C)c1ccccc1C(=O)N2CC(F)(F)F | 17 | 7000 | > 10000 | Activity [5]: >=50 - 90%; AUC [6]: 1270 ng·h/mL; Activity [7]: >=50 - 90%; Activity (Homo sapiens [8]): inactive; Activity (Homo sapiens [9]): inactive; t1/2 [10]: 2.09 h; clearance [11]: 26.3 mL/min/kg; IC50 ([2]; hela): 3350 nM
COc1cc(NS(C)(=O)=O)ccc1Nc1ncc2c(n1)N(C)c1ccccc1C(=O)N2C(C)C | > 1000 | 683 | 7490 | 

SMILES | IC50 [1] [nM] | IC50 [3] [nM] | IC50 [4] [nM] | further results
COc1cc(N2CCN(C)CC2)ccc1Nc1ncc2c(n1)N(C1CCC1)c1ccccc1C(=O)N2C | 14 | 97 |  | IC50 [2]: 79 nM
CN1C(=O)c2ccccc2N(C)c2nc(Nc3ccc(NS(C)(=O)=O)cc3)ncc21 | 2 |  |  | 
Cc1cc(N2CCC(O)CC2)ccc1Nc1ncc2c(n1)N(C)c1ccccc1C(=O)N2C | 37 | 35 |  | 
CCN1C(=O)c2ccccc2N(C)c2nc(Nc3ccc(N4CCN(C)CC4)cc3OC)ncc21 | 3 | 62 | 830 | IC50 [2]: 1200 nM
COc1cc(C(=O)NC2CCN(C)CC2)ccc1Nc1ncc2c(n1)N(C)c1ccccc1C(=O)N2CC(F)(F)F | 10 | 378 | 1570 | 
CCC(C)N1c2ccccc2C(=O)N(C)c2cnc(Nc3ccc(N4CCN(C)CC4)cc3OC)nc21 (stereo not given) | 32 | 743 |  | IC50 [2]: 222 nM
CC(C)Oc1cc(N2CCC(O)CC2)ccc1Nc1ncc2c(n1)N(C)c1ccccc1C(=O)N2C | 510 | 160 |  | 
CC(C)Oc1cc(N2CCN(C)CC2)ccc1Nc1ncc2c(n1)N(C)c1ccccc1C(=O)N2CC(F)(F)F | 214 |  |  | 
COc1cc(C(=O)NC2CCN(C)CC2)ccc1Nc1ncc2c(n1)N(C)c1ccccc1C(=O)N2C | 1 to 4 | 8.2 to 18 | 4170 | 
COc1cc(N2CCN(C)CC2)ccc1Nc1ncc2c(n1)N(C)c1ccccc1C(=O)N2C(C)C | 411 | 1900 | 1200 | 
COc1cc(N2CCN(C)CC2)ccc1Nc1ncc2c(n1)N(C(C)C)c1ccccc1C(=O)N2C | 71 | 289 |  | 
CCN1C(=O)c2ccccc2N(C)c2nc(Nc3ccc(NS(C)(=O)=O)cc3OC)ncc21 | 36 | 23 | 4600 | 
COc1cc(N2CCN(C)CC2)ccc1Nc1ncc2c(n1)N(C)c1ccc(C)cc1C(=O)N2CC(F)(F)F | > 5000 |  |  | 
COc1cc(N2CCN(C)CC2)ccc1Nc1ncc2c(n1)N(C)c1ccc(Cl)cc1C(=O)N2C | > 2000 | 1330 |  | 
COc1cc(N2CCN(C)CC2)ccc1Nc1ncc2c(n1)N(C)c1cc(Cl)ccc1C(=O)N2C | > 2000 | 3740 |  | 
CCN1c2ccccc2C(=O)N(C)c2cnc(Nc3ccc(N4CCN(C)CC4)cc3OC)nc21 | 154 | 57 |  | 
COc1cc(C(=O)N2CCN(C3CCN(C)CC3)CC2)ccc1Nc1ncc2c(n1)N(C)c1ccccc1C(=O)N2C |  | 5 |  | 
CN1C(=O)c2ccccc2N(C)c2nc(Nc3ccc(N4CCC(O)CC4)cc3)ncc21 | 109 | 30 |  | 
CN1C(=O)c2ccccc2N(C)c2nc(Nc3ccc(S(N)(=O)=O)cc3)ncc21 | 187 | 7 |  | 
